# How the values were obtained:
# [1] = tested on: STAT5 Y694 phosphorylation; assay: HTRF experiment: STAT5 Y694 phosphorylation in Hela cells stimulated with human interferon beta; type: cell-based; details: 2 hours pretreatment, 10 nM human interferon beta 30 minutes
# Experimental: Example of Effect 3: HTRF Experiment
# Human Interferon 3 (IFN-0) (GenScript, Cat #P01574), STAT5 Y694 phosphorylation detection kit (STAT5 phospho-Y694 kit) (Cisbio; Cat #64AT5PEG).
# Hela cells (ATCC American Standard Culture Center, CCL-2) were cultured in a 96-well plate at a density of 3×10^4 cells/well with DMEM medium containing 5% fetal bovine serum and maintained at 37° C. in a humidified incubator with 5% carbon dioxide overnight. On the second day, the original DMEM medium in the 96-well plate was sucked dry, and an equal volume of medium containing different concentrations of compounds (the mother liquor of the compound prepared by dimethyl sulfoxide was diluted in the medium at the required concentration) was added for pretreatment for 2 hours, and then it was placed in an incubator at 37° C. Then human interferon beta with a final concentration of 10 nM was added to stimulate, and it was gently shaken to mix well and then placed in an incubator at 37° C. for 30 minutes.
# The medium was removed, an appropriate volume of PBS was added to wash, and then it was sucked dry. Then 40 microliters of 1× Lysis Buffer was added to each well and it was stood for 30 minutes at room temperature (1 ml 1× lysate preparation: 740 μl ddH2O was added to 250 μl 4× lysate and 10 μl Blocking reagent and it was mixed thoroughly). After 30 minutes, the cells were repeatedly blown until the lysis solution was not viscous (avoiding blowing out bubbles) to achieve sufficient lysis.
# After overnight incubation, the signals of 665 nm and 620 nm were detected in a multifunctional microplate reader. The calculation formula for the detection of STAT5 Y694 phosphorylation is: Ratio=[(signal 665 nm)/(signal 620 nm)]×10^4. Treatment with dimethyl sulfoxide alone was the baseline control (Ratiobase), and the human interferon β stimulation without addition of the compound was the STAT5 Y694 full phosphorylation activation control (Ratiostimulation), the inhibition rate of STAT5 Y694 phosphorylation of different samples was normalized: Inhibition rate=[1−(RatioExperiment−Ratiobase)/(Ratiostimulation−Ratiobase)]*100.
# [2] = tested on: STAT5 Y694 phosphorylation; assay: Protein electrophoresis and blotting of STAT5 Y694 phosphorylation in Jurkat cells stimulated with human interferon beta; type: cell-based; details: observed pSTAT5 bands at 10 μM and 100 μM
# In short: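 Serum-free Jurkat cells pretreated with compound 1 h, then stimulated with 20 ng/ml human interferon beta for 30 min at 37° C. pSTAT5 measured by western blot with chemiluminescence, normalized to GAPDH and expressed as percent of DMSO control.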
Structure (SMILES),Example of Effect 3: Inhibiting Ratio@10 μM (HTRF Experiment) [1],Example of Effect 1: Inhibiting Ability (Protein Electrophoresis and Blotting) [2]
"O=C(Cc1ccc2ncccc2c1)N1CCC(n2c(=O)[nH]c3ccccc32)CC1 [GEN1-075, 1-(1-(2-(quinolin-6-yl)acetyl)piperidin-4-yl)-1H-benzo[d]imidazol-2(3H)-one]",10.79%,+
"O=C(Cc1ccc(C(F)(F)F)cc1)N1CCC(n2c(=O)[nH]c3ccc(C4CC4)cc32)CC1 [GEN1-089, 6-cyclopropyl-1-(1-(2-(4-(trifluoromethyl)phenyl)acetyl)piperidin-4-yl)-1H-benzo[d]imidazol-2(3H)-one]",7.83%,+
"O=C(Cc1ccc(C(F)(F)F)cc1)N1CCC(n2c(=O)[nH]c3cccc([N+](=O)[O-])c32)CC1 [GEN1-091, 7-nitro-1-(1-(2-(4-(trifluoromethyl)phenyl)acetyl)piperidin-4-yl)-1H-benzo[d]imidazol-2(3H)-one]",17.60%,+
"O=C(C[C@H]1CC[C@@H](C(F)(F)F)CC1)N1CCC(n2c(=O)[nH]c3ccccc32)CC1 [GEN1-107, (Cis)-1-(1-(2-(4-(trifluoromethyl)cyclohexyl)acetyl)piperidin-4-yl)-1H-benzo[d]imidazol-2(3H)-one]",37.09%,+
"O=C(C[C@H]1CC[C@H](C(F)(F)F)CC1)N1CCC(n2c(=O)[nH]c3ccccc32)CC1 [GEN1-108, (trans)-1-(1-(2-(4-(trifluoromethyl)cyclohexyl)acetyl)piperidin-4-yl)-1H-benzo[d]imidazol-2(3H)-one]",38.81%,+
"O=C(Cc1ccc2c(c1)OCO2)N1CCC(n2c(=O)[nH]c3cccc(C(F)(F)F)c32)CC1 [GEN1-116, 1-(1-(2-(benzo[d][1,3]dioxol-5-yl)acetyl)piperidin-4-yl)-7-(trifluoromethyl)-1,3-dihydro-2H-benzo[d]imidazol-2-one]",35.01%,+
"O=C(Cc1ccc2ncccc2c1)N1CCC(n2c(=O)[nH]c3cccc(C(F)(F)F)c32)CC1 [GEN1-117, 1-(1-(2-(quinolin-6-yl)acetyl)piperidin-4-yl)-7-(trifluoromethyl)-1H-benzo[d]imidazol-2(3H)-one]",89.31%,++
"CN(C)c1ccc(CC(=O)N2CCC(n3c(=O)[nH]c4cccc(C(F)(F)F)c43)CC2)cc1 [GEN1-118, 1-(1-(2-(4-(dimethylamino)phenyl)acetyl)piperidin-4-yl)-7-(trifluoromethyl)-1,3-dihydro-2H-benzo[d]imidazol-2-one]",27.57%,+
O=c1[nH]c2ccccc2n1C1CCN(C(=S)Cc2ccc(C(F)(F)F)cc2)CC1 [GEN1-128],13.88%,+
"O=C1CN(C2CCN(C(=O)Cc3ccc(C(F)(F)F)cc3)CC2)c2cccc(C(F)(F)F)c2N1 [GEN1-134, 8-(trifluoromethyl)-4-(1-(2-(4-(trifluoromethyl)phenyl)acetyl)piperidin-4-yl)-3,4-dihydroquinoxaline-2(1H)-one]",3.06%,−
"O=C(Cc1ccc2ncccc2c1)N1CCC(n2c(=S)[nH]c3ccccc32)CC1 [GEN1-137, 2-(quinolin-6-yl)-1-(4-(2-thio-2,3-dihydro-1H-benzo(d)imidazol-1-yl)piperidin-1-yl)ethan-1-one]",19.51%,+
"O=C(Cc1ccc2nccnc2c1)N1CCC(n2c(=O)[nH]c3cccc(C(F)(F)F)c32)CC1 [GEN1-140, 1-(1-(2-(quinoxalin-6-yl)acetyl)piperidin-4-yl)-7-(trifluoromethyl)-1,3-dihydro-2H-benzo[d]imidazol-2-one]",53.79%,+
"O=C(Nc1ccc(C(F)(F)F)cc1)N1CCC(n2c(=O)[nH]c3cccc(C(F)(F)F)c32)CC1 [GEN1-149, 4-(2-oxo-7-(trifluoromethyl)-2,3-dihydro-1H-benzo[d]imidazol-1-yl)-N-(4-(trifluoromethyl)phenyl)piperidin-1-carboxamide]",0.49%,+
"N#Cc1cccc2[nH]c(=O)n(C3CCN(C(=O)Cc4ccc5ncccc5c4)CC3)c12 [GEN1-151, 2-oxo-3-(1-(2-(quinolin-6-yl)acetyl)piperidin-4-yl)-2,3-dihydro-1H-benzo[d]imidazol-4-carbonitrile]",39.02%,+
"O=C(Cc1ccc(C(F)(F)F)cc1)N1CCC(n2c(=O)[nH]c3c(N4CCOCC4)cccc32)CC1 [GEN1-154, 4-morpholino-1-(1-(2-(4-(trifluoromethyl)phenyl)acetyl)piperidin-4-yl)-1H-benzo[d]imidazol-2(3H)-one]",6.10%,−
"O=C(Cc1ccc(Cl)cc1)N1CCC(n2c(=O)[nH]c3cccc(C(F)(F)F)c32)CC1 [GEN1-156, 1-(1-(2-(4-chlorophenyl)acetyl)piperidin-4-yl)-7-(trifluoromethyl)-1H-benzo[d]imidazol-2(3H)-one]",47.04%,+
"O=C(Cc1ccc(Br)cc1)N1CCC(n2c(=O)[nH]c3cccc(C(F)(F)F)c32)CC1 [GEN1-157, 1-(1-(2-(4-bromophenyl)acetyl)piperidin-4-yl)-7-(trifluoromethyl)-1H-benzo[d]imidazol-2(3H)-one]",28.83%,+
"CC(C)(C(=O)N1CCC(n2c(=O)[nH]c3cccc(C(F)(F)F)c32)CC1)c1ccc(C(F)(F)F)cc1 [GEN1-158, 1-(1-(2-methyl-2-(4-(trifluoromethyl)phenyl)propionyl)piperidin-4-yl)-7-(trifluoromethyl)-1H-benzo[d]imidazol-2(3H)-one]",0.16%,−
"O=C(Cc1ccc2c(c1)OCCO2)N1CCC(n2c(=O)[nH]c3cccc(C(F)(F)F)c32)CC1 [GEN1-159, 1-(1-(2-(2,3-dihydrobenzo[b][1,4]dioxin-6-yl)acetyl)piperidin-4-yl)-7-(trifluoromethyl)-1,3-dihydro-2H-benzo[d]imidazol-2-one]",22.99%,+
"O=C(C(=O)N1CCC(n2c(=O)[nH]c3cccc(C(F)(F)F)c32)CC1)c1ccc(C(F)(F)F)cc1 [GEN1-160, 1-(4-(2-oxo-7-(trifluoromethyl)-2,3-dihydro-1H-benzo[d]imidazol-1-yl)piperidin-1-yl)-2-(4-(trifluoromethyl)phenyl)1,2-dione]",10.27%,+
